Laboratory results from PMC8861431, “Tissue Pharmacokinetic Properties and Bystander Potential of Hypoxia-Activated Prodrug CP-506 by Agent-Based Modelling” (Frontiers in Pharmacology, 2022).
“And” between values parts separate entries of the source, which are not always exact repeats. Identical values can stand only once.

How the values were obtained:
[1] = system: PORko-G and POR-R spheroids / spheroid co-cultures; experiment: Spheroid clonogenic survival assay (with spheroid ABM fit); assay type: cell-based, human; settings: for k d S: kill probability rate constant in spheroid cultures: fitted by spheroid ABM to clonogenic survival under anoxia, set to zero for the prodrug, same kd assumed for metabolites
Procedure: Spheroid cultures were established by seeding 3 x 10^3 cells with 100 µl medium into ultra-low attachment, round bottom 96-well plates (Corning Inc, Corning, NY). Plates were briefly centrifuged (200 g, 5 min) to facilitate cell aggregation and grown in a standard incubator (37°C, 21% O2, 5% CO2) for 4 days before experiments. The culture medium was then aspirated, and the established spheroids taken into a H2/Pd-catalyst anaerobic chamber. Spheroids were washed three times with anoxia pre-equilibrated medium and left to settle for 1 h in a humidified 37°C incubator. Spheroids were removed from the anaerobic chamber after a 4 h drug exposure and washed three times with fresh culture medium. The growth of representative spheroids was monitored for 10 days using a published method of image analysis for volume determination ([Mao et al., 2018]). The remainder were enzymatically dissociated and plated at serial dilutions in 6-well plates containing 2 µM puromycin or 1 mg/ml geneticin for positive selection of POR-R and PORko-G cells, respectively. Colonies were visualized after 10 days of drug-free proliferation by staining with methylene blue (2 g/L in 50% aqueous ethanol) for 30 min. The number of colonies with at least 50 cells was manually counted to determine the plating efficiency. The surviving fraction was determined as the ratio of the plating efficiency of treated cells to that of the controls.
The spheroid ABM is described in further detail elsewhere ([Hong et al., 2018b]; [Mao et al., 2018]). The model employs two 3D grids and two solvers, a coarse grid represents the culture medium and is embedded with a much finer grid that represents the spheroid in a small cubic region at the bottom of the well. The spheroid grows in a specified volume and depth of unstirred medium containing dissolved oxygen. The geometry of the model is lattice-based, in which cells occupy cubic sites on a regular 3D lattice and grow in volume at a rate dependent on the local oxygen concentration. Autonomous cell mobility and cell-cell forces are not simulated. Cell motion occurs only as a result of cell division. Cells divide when the volume reaches a pre-set value (Vdiv) and the resultant daughter cell occupies an adjacent empty lattice site. […] The oxygen concentration at the air-medium boundary is defined by the gas phase of the culture environment. […] When oxygen concentrations fall below a critical level (<0.15 µM), cells are tagged to die and cytolysis occurs after a further 24 h leading to the central necrosis observed in in vitro spheroids. Spheroid ABM simulations were performed on a desktop Windows PC (Intel core I7 processor) from a Qt (Qt Company, https://www.qt.io/) graphical user interface passing parameters to a DLL built with Fortran95. The solution of the coarser grid provides the boundary conditions for the solution of the intracellular and extracellular concentrations within the spheroid lattice. Oxygen and drug are transported by diffusion from the boundary into the spheroid interior through the intercellular space in parallel with their uptake into cells. The model allows specification of two mass transfer constants to characterise the uptake (Kin) and efflux (Kout) rates for each compound. Prodrug metabolism is restricted to the intracellular compartment and dependent on the local oxygen concentration. […]

[2] = Cellular uptake studies / cellular PK model; assay type: in vitro ADME, human; settings: human, POR-overexpressing HCT-116 (POR-R) cell monolayer; Table S3, cellular PK model (extracellular instability); read-out: T1/2: time required to reduce the concentration to half its initial value (converted)
Procedure: (§1) The intracellular/extracellular partitioning ratio for CP-506 and its major metabolites was determined in monolayer cultures of POR-overexpressing HCT-116 cells, as described previously ([Hong et al., 2018b]). Briefly, cells (5 x 10^5 per well) were seeded with 350 µl medium into 24-well plates and left to attach for 2 h in a humidified 37°C incubator. Stock solutions of CP-506 were diluted and added with 50 µl medium to the well volume to achieve a final concentration of 100 µM. Samples were harvested at various time points for up to 3 h thereafter. Aerobic experiments were performed under standard tissue culture conditions (21% O2), and the anoxic experiments in parallel in a H2/Pd-catalyst-scrubbed anaerobic chamber as described. The well volume was spiked with [^3H]-mannitol immediately before sample harvest and treated with two-volumes of ice-cold acetonitrile containing 2 µM of the deuterated (D8) internal standards for each CP-506, CP-506H and CP-506M. The cell monolayer was then treated with 100 µl of this crashing solution. Samples were stored at −80°C until LC-MS/MS analysis. The cellular exclusion of [^3H]-mannitol was used to account for the contribution of the extracellular medium toward determinations of the intracellular concentration, as described previously ([Foehrenbacher et al., 2013a]).
(§2) An agent-based model (ABM) employing a one-dimensional approximation for monolayers was used to develop a cellular PK model, as described in further detail elsewhere ([Hong et al., 2018b]; [Mao et al., 2018]). The mathematical framework assumes that solute concentrations in the medium are dependent only on the depth (on the z coordinate) and not the lateral position (x,y) so that all cells are exposed to the same concentration of nutrients and drugs within the monolayer culture. Moreover, all cells have the same rate of metabolism and volume growth at any instance with variability allowed in cell volume, rate of cell division and cell death. Monolayer ABM simulations were performed on a desktop Windows PC (Intel core I7 processor) from a Qt (Qt Company, https://www.qt.io/) graphical user interface passing parameters to a DLL built with Fortran95. The monolayer ABM uses a finite difference method to solve reaction-diffusion equations for each compound (N) in the medium and cells. Parameters for the cellular uptake and metabolism were fitted to the concentration-time profiles of CP-506 and its metabolites in monolayer cultures of POR-R cells using a linear (first order) cell transport and metabolism model. Terms for the extracellular instability of CP-506 and its metabolites were set at their respective values in media stability studies, and media diffusion coefficients were estimated from the support membrane diffusion coefficients described below. Experimental data describing the kinetics of CP-506 uptake under aerobic conditions was fitted by adjusting the permeability coefficients kin and kout for each compound. These values were fixed for anoxic experiments to allow for parameter estimation of the rate of intracellular CP-506 metabolism (kmet0) as well as the intracellular/extracellular partitioning ratio (kin and kout) and metabolic instability (kmet0) for its cytotoxic metabolites.

[3] = system: POR-overexpressing HCT-116 cells (POR-R) monolayer; experiment: Cellular uptake studies / cellular PK model; assay type: in vitro ADME, human; settings: for k in: rate constant for transfer from the extracellular to intracellular volume / k out: rate constant for transfer from the intracellular to extracellular volume: Table 1, ABM parameter, estimated from partitioning in monolayer cultures; for kin: rate of transfer from the extracellular to the intracellular compartment / kout: rate of transfer from the intracellular to the extracellular compartment: Table S3, cellular PK model, monolayer ABM fit; for kmet: rate of metabolism to the next metabolite: Table S3, anoxic, CP-506 to CP-506H, CP-506H to CP-506M, CP-506M to CP-506M-Cl2; for Activator k met0: rate constant for the maximum rate of metabolism in POR-R cells under anoxia / kmet: rate of metabolism to the next metabolite: POR-R cells
Procedure: as §1, §2

| SMILES | Differential in anoxic sensitivity between PORko-G and POR-R spheroids ([1]; clonogenic endpoint, 4 h exposure, anoxia) | k d S: kill probability rate constant in spheroid cultures [1] | half-life at 100 µM [2] [min] | Activator k met0: rate constant for the maximum rate of metabolism in POR-R cells under anoxia [3] [min⁻¹] | k in: rate constant for transfer from the extracellular to intracellular volume [3] [min⁻¹] | k out: rate constant for transfer from the intracellular to extracellular volume [3] [min⁻¹] | kin: rate of transfer from the extracellular to the intracellular compartment [3] [min⁻¹] | kout: rate of transfer from the intracellular to the extracellular compartment [3] [min⁻¹] | kmet: rate of metabolism to the next metabolite [3] [min⁻¹] | Steady-state Ci/Ce ratio (cell uptake) ([3]; anoxic <1 ppm O2, POR-R monolayer) [fold] | Activator k met0: rate constant for the maximum rate of metabolism in POR-R cells under anoxia ([3]; footnote d: assumed equivalent to the measured metabolites or from published PR-104A estimates) |
| --- | --- | --- | --- | --- | --- | --- | --- | --- | --- | --- | --- |
| CCN1CCN(C(=O)c2cc(N(CCBr)CCOS(C)(=O)=O)c(S(C)(=O)=O)cc2[N+](=O)[O-])CC1 [CP-506, 2-[(2-bromoethyl)-5-[(4-ethyl-1-piperazinyl)carbonyl]-2-(methylsulfonyl)-4-nitroanilino]ethyl methanesulfonate] | 22 fold and 20 fold | 0 | 1200 | 0.12 | 3.7 | 0.06 | 3.7 | 0.06 | 0.12 | 40 | – |
| CCN1CCN(C(=O)c2cc(N(CCBr)CCOS(C)(=O)=O)c(S(C)(=O)=O)cc2NO)CC1 [CP-506H, 2-((2-bromoethyl)(5-(4-ethylpiperazine-1-carbonyl)-4-(hydroxyamino)-2-(methylsulfonyl)phenyl)amino)ethyl methanesulfonate] | – | 0.0256 | 12.6 | 0.09 | 0.9 | 0.25 | 0.9 | 0.25 | 0.09 | – | – |
| CCN1CCN(C(=O)c2cc(N(CCBr)CCOS(C)(=O)=O)c(S(C)(=O)=O)cc2N)CC1 [CP-506M, 2-((4-amino-5-(4-ethylpiperazine-1-carbonyl)-2-(methylsulfonyl)phenyl)(2-bromoethyl)amino)ethyl methanesulfonate] | – | 0.0256 | 6.6 | 0.1 | 0.9 | 0.4 | 0.9 | 0.4 | 0.1 | – | – |
| CCN1CCN(C(=O)c2cc(N(CCCl)CCCl)c(S(C)(=O)=O)cc2N)CC1 [CP-506M-Cl2, (2-Amino-5-(bis(2-chloroethyl)amino)-4-(methylsulfonyl)phenyl)(4-ethylpiperazin-1-yl)methanone] | – | 0.0256 | – | – | – | – | – | – | – | – | 0.1 ^d min^−1 |
